Laboratory results: patent publication US11896678B2, “Compositions and methods for treatment of peroxisome proliferator-activated receptor gamma (PPARG) activated cancer” (THE BROAD INSTITUTE, INC., priority 2017, dated 2024)
Values belong to the molecule of their own block, whether it stands above or below them. Ends that are not written are not given here.

What was measured:
[1] = target: T1, PPARG ligand-binding domain - SMRT/NCOR2 corepressor peptide (Homo sapiens, UniProt P37231); experiment: TR-FRET corepressor assay, SMRT/NCOR2 peptide; format: biochemical
T1 construct: purchased ThermoFisher Scientific
T1 sequence (P37231 238-503 limits assumed): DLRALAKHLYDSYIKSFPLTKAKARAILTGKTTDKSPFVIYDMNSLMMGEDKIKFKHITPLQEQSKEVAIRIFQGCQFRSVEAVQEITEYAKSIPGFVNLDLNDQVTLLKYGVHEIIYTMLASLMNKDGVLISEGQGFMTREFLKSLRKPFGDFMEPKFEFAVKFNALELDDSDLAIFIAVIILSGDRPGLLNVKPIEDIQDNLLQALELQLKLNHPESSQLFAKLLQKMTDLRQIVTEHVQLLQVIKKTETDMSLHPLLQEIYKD
Description: (§1) To evaluate inverse-agonism, a TR-FRET PPARG co-repressor assay (ThermoFisher) that measures recruitment of a fluorescent NCOR1 or NCOR2 corepressor peptide to the PPARG ligand-binding domain was used (ThermoFisher).
To determine effects on interactions between PPARG and coregulators, PPARG modulators were tested in two TR-FRET biochemical interaction assays for agonism and inverse-agonism. Agonism was quantitated using a coactivator assay, which measured the interaction between the PPARG ligand-binding domain and a fluorescently-labeled peptide from TRAP220/MED1. […] To evaluate inverse-agonism biochemically, ligand-dependent interactions were measured between PPARG ligand-binding domain and corepressor peptides from NCoR/NCOR1 and SMRT/NCOR2.

[2] = tested on: PPARG-activated pancreatic and colorectal cancer cell lines; experiment: Kinetic proliferation assay in pancreatic and colorectal cancer cell lines; format: cell-based; details: 500 nM
Text: To enable cell-counting, cell lines were transduced with a lentiviral vector encoding nuclear-targeted GFP (TagGFP2-H2B), and stable pools generated following selection for puromycin-resistance. Cell lines were maintained for at least 7 days following selection prior to expansion and seeding into 96-well plates for further analysis. For kinetic proliferation assays, 96-well plates were imaged in phase-contrast and green fluorescence mode every two hours using IncuCyte Zoom (Essen BioScience, Ann Arbor MI). Using IncuCyte software, the number of fluorescent nuclei were counted to monitor quantitative changes in cell number over time. Media and compounds were replaced approximately every 3-4 days.
DMSO treatment was also included as a vehicle control.

5637 cells = experiment: Proliferation assay in PPARG-amplified 5637 cells; format: cell-based; details: Homo sapiens; data not shown
Description: To determine if treatment of PPARG-activated bladder cancer cell lines with PPARG modulators impacted viability, a variety of compounds were tested in proliferation assays.

[3] = target: T2, PPARG ligand-binding domain - NCoR/NCOR1 corepressor peptide (Homo sapiens, UniProt P37231); experiment: TR-FRET corepressor assay, NCoR/NCOR1 peptide; format: biochemical; details: data not shown
T2 construct: purchased ThermoFisher Scientific
T2 sequence (P37231 238-503 limits assumed): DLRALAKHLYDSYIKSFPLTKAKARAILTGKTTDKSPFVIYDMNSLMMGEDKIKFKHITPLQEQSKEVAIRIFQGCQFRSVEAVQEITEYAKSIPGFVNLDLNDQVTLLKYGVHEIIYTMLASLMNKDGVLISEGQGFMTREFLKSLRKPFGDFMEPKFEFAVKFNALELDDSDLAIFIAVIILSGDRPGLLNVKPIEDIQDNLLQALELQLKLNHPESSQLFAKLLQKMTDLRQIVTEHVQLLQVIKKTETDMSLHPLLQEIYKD
Description: as §1
In addition to the PPARG-NCOR2 interaction assay described above, interactions between PPARG and a peptide from the corepressor NCOR1 were measured.

UM-UC-9 cells [4] = experiment: Direct cell counting dose-response proliferation assay; format: cell-based, human
Description: To determine whether PPARG modulators affect the proliferation and/or viability of PPARG-activated bladder cancer cell lines, a direct cell counting-based assay was performed. This assay likely avoids potential artifacts associated with the use of an ATP content-based assay, given that PPAR modulators are known to regulate cellular metabolic activity. […] These IC50 values align well with the calculated IC50s from both the cell-based reporter gene assay (FIG. 8A) and the biochemical corepressor assay (FIG. 8D).
(§2) Proliferation Assays: To enable cell-counting experiments, cell lines were transduced with a lentiviral vector encoding nuclear-targeted GFP, TagGFP2-H2B (Evrogen), and stable pools generated following selection for puromycin resistance. Cell lines were maintained for at least 7 days following selection prior to expansion and seeding into 96- or 384-well plates for further analysis. For kinetic proliferation assays, 96-well plates (n 1% 4 per condition) were imaged and counted every two hours using IncuCyte Zoom (Essen BioScience). Media and compounds were replaced approximately every 3-4 days. For endpoint assays to measure dose-response, cells were plated in 384-well plates, dosed with compound, and upon reaching approximately 70% to 90% confluence in control wells, cells were either counted using fluorescence imaging (Incu-Cyte Zoom) or incubated with CyQuant (Thermo Fisher) at the indicated time and plates were read with a fluorescent plate reader.

UM-UC-9 cells [5] = experiment: Kinetic proliferation assay (IncuCyte), percent of DMSO control; format: cell-based, human; details: 100 nmol/L; DMSO control at 50% confluency
Text: This assay was expanded to include an additional 8 representative bladder cancer cell lines, including cell lines with PPARG amplification, RXRA p.S427F mutation, activated gene signature, and control cell lines with low level expression of PPARG and target genes. […] Representative data for the UM-UC-9 cell line are shown in FIG. 6B, and is tabulated for the tested bladder cancer cell lines in Table 1. […] Similar results were obtained with these cell lines in parallel studies using clonogenic assays to quantify colony-forming ability (FIG. 10).
as §2, with “Cell lines were maintained for at least 7 days following selection prior to expansion and seeding into 96- or 384-well plates for further analysis.” left out, “Media and compounds were replaced approximately every 3-4 days.” left out

[6] = tested on: PPARG-activated bladder cancer cell lines; experiment: Proliferation assays in PPARG-activated bladder cancer cell lines; format: cell-based, human; details: 100 nM-500 nM
Description: A panel of bladder cancer cell lines with PPARG modulators in colony formation assays was then tested (FIG. 10), kinetic proliferation assays (IncuCyte Zoom; Essen Bioscience) using cell lines treated with a single concentration of compound (100 nM-500 nM), and end-point dose-response assays (CellTiter Glo or CyQuant).
This assay was expanded to include an additional 8 representative bladder cancer cell lines, including cell lines with PPARG amplification, RXRA p.S427F mutation, activated gene signature, and control cell lines with low level expression of PPARG and target genes. […] Representative data for the UM-UC-9 cell line are shown in FIG. 6B, and is tabulated for the tested bladder cancer cell lines in Table 1. […] This significant (P<0.01) preferential sensitivity to PPARG inverse-agonists, but not antagonists, is maintained across all of the PPARG-activated cell lines in the panel, including the RXRA p.S427F cell line, HT-1197 (41), the PPARG-amplified cell lines, 5637 and UM-UC-9, and the PPARG activation gene signature cell lines Cal29, UM-UC-1, and RT112/84 (FIG. 12). […] Similar results were obtained with these cell lines in parallel studies using clonogenic assays to quantify colony-forming ability (FIG. 10).
as §2

[7] = target: T3, PPARG ligand-binding domain - TRAP220/MED1 coactivator peptide (Homo sapiens, UniProt P37231); experiment: TR-FRET coactivator assay, TRAP220/MED1 peptide; format: biochemical
T3 construct: purchased ThermoFisher Scientific
T3 sequence (P37231 238-503 limits assumed): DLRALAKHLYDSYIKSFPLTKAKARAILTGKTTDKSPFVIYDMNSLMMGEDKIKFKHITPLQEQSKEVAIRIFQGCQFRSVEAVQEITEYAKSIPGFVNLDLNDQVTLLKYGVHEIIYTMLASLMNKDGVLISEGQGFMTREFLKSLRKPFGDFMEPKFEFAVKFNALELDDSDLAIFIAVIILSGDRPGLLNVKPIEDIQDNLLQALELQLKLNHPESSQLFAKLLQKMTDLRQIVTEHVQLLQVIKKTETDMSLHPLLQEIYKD

bladder cancer = details: rodents; cited from earlier work
[8] = target: Terbium-labeled PPARG ligand binding domain (PPARG-LBD) (Macaca mulatta (Rhesus macaque)) (UniProt O18924); experiment: TR-FRET corepressor assay, PPARG-LBD and SMRT/NCOR2 peptide; with antagonists GW9662 and SR2595
[9] = target: Terbium-labeled PPARG ligand binding domain (PPARG-LBD) (Macaca mulatta (Rhesus macaque)) (UniProt O18924); experiment: TR-FRET corepressor assay, PPARG-LBD and SMRT/NCOR2 peptide; with agonists rosiglitazone, tesaglitazar and GW9129 (so in the source)
[10] = target: Terbium-labeled PPARG ligand binding domain (PPARG-LBD) (Macaca mulatta (Rhesus macaque)) (UniProt O18924); experiment: TR-FRET corepressor assay, PPARG-LBD and SMRT/NCOR2 peptide; with inverse-agonists T0070907 and SR10221

Molecule: CCCCCOc1cc2c(cc1-c1cc(/C=C/C(=O)O)ccc1O)C(C)(C)CCC2(C)C [UVI3003]
effect in coactivator assay [7]: minimal effect

Molecule: CCc1ccc(CCOc2ccc(CC3SC(=O)NC3=O)cc2)nc1 (stereo not shown) [pioglitazone]
carcinogenic effect, bladder cancer (bladder cancer): carcinogenic effect in rodents was also observed

Now from value to molecule, other results behind:

induced signal [3]: less than 2 fold
Molecule: CC1=C2C=C(C(=O)N[C@@H](C)c3ccc(C(C)(C)C)cc3)C=CC2N(Cc2ccc(Cl)c(O[C@@H](C)C(=O)O)c2)C1C (stereo partly shown) [SR10221]
effect on PPARG-NCOR2 interaction [1]: induce interaction between PPARG and NCOR2 | sensitivity of cell lines [2]: preferentially sensitive | IC50 (5637 cells): 20 to 30 nM | effect on cell proliferation compared with DMSO control (UM-UC-9 cells [4]): significantly reduced proliferation | IC50 (UM-UC-9 cells [4]; Homo sapiens, UM-UC-9, read-out: calculated IC50, proliferation): 16 nM | reduction of proliferation relative to control (UM-UC-9 cells [5]): 80% | sensitivity of cell lines [6]: preferentially sensitive

fold increase in signal [8]: 1.7 fold | decrease in signal [9]: 50 to 60% | fold increase in signal [10]: 3 to 6 fold
B1: fluorescein-labeled SMRT ID2 corepressor peptide (SMRT/NCOR2) (peptide)
peptide: HASTNMGLEAIIRKALMGKYDQW
modifications: also: fluorescein-labeled, site not given here
